In patent US11180510B2, “Xanthine derivatives and uses thereof as inhibitors of bromodomains of BET proteins” (Centre national de la recherche scientifique, priority 2017, dated 2021):
“And” between values parts separate entries of the source, which are not always exact repeats. Identical values can stand only once. Like-named read-outs stand apart in the source and are kept apart here.

Columns and labels:
Assay type in all cases: binding
BRD4(BD1) [1] = biological target: T1, BRD4(BD1) (Homo sapiens, UniProt O60885); experiment: Isothermal Titration Calorimetry; conditions: ITC; read-out: Binding affinity (Kd) to BRD4(1) by Isothermal Titration Calorimetry
Method: FIG. 1. Isothermal Titration Calorimetry (ITC) of 43c. Thermogram (top) and non-linear least squares fit model of the integrated data (bottom) at 15° C. of Brd4 (BD1) […] as a function of the molar ratio of ligand to the protein.
ITC was used to evaluate the thermodynamics parameters of the binding between BRD4 (BD1) and the selected compounds. Titrations were carried out on a MicroCal ITC200 microcalorimeter (GE Healthcare, Piscataway, N.J.). Each experiment was designed using a titrant concentration (protein in the syringe generally between 100 and 400 μM) set 10 to 15 times the analyte concentration (compound in the cell generally between 10 and 40 μM) and using 13 injections at 25° C. A first small injection (generally 0.2 μL) was included in the titration protocol in order to remove air bubbles trapped in the syringe prior titration. Raw data were scaled after setting the zero to the titration saturation heat value. Integrated raw ITC data were fitted to a one site non-linear least squares fit model using the MicroCal Origin plugin as implemented in Origin 7 (Origin Lab). Finally, ΔG and TΔS values were calculated from the fitted ΔH and KA values using the equations ΔG=−R.T.inKA and ΔG=ΔH−TΔS.

BRD4(BD1) [2] = biological target: T1, BRD4(BD1); experiment: HTRF assay, BRD4(BD1)/histone peptide interaction; design: made in house; conditions: for IC50: HTRF; for Ratio 4-1 vs 4-2: selectivity Brd4(BD1) vs Brd4(BD2), HTRF IC50
Method: (§1) HTRF assays were performed in white 384 Well Small Volume™ HiBase Polystyrene Microplates (Greiner) with a total working volume of 20 μL. Compounds were dispensed, with 100 nL per well (0.5% final DMSO), from a concentration stock of 10 mM in 100% DMSO and with serial DMSO dilutions, using an Echo® 550 robot from the Access Labcyte platform (Labcyte) and based on the transfer of liquid by acoustic wave. Then, 19.5 μL of buffer is added, using a Multidrop Combi (Thermo Fisher Scientific). […] All HTRF reagents (donor and acceptor) were purchased from CisBio Bioassays and reconstituted according to the supplier protocols. The peptide was purchased from Genic Bio Synthetic. The BRD4(1) protein was produced and purified in the laboratory.
(§2) Percentage of inhibition was calculated using the following equation: % inhibition=[(compound signal)−(min signal)]/[(max signal)−(min signal)]*100, where ‘max signal’ is the signal ratio with the compound vehicle alone (DMSO) and ‘min signal’ the signal ratio without peptide.
(§3) Selectivity profiles of bromodomain inhibitors were performed as described in HTRF screen section. […] HTRF detection reagents (EPIgeneous™ Binding Domain kits) were purchased from Cisbio Bioassays and used according to supplier's protocol. GST tagged bromodomain proteins were purchased from BPS Bioscience and histone peptide from Genic Bio Synthetic.

Brd2(BD1) = biological target: T2, Brd2(BD1) (Homo sapiens, UniProt P25440); experiment: HTRF BET selectivity profile, Brd2(BD1); conditions: for Ratio 2-1 vs 2-2: selectivity Brd2(BD1) vs Brd2(BD2), HTRF IC50
T2 construct: GST tagged bromodomain proteins were purchased from BPS Bioscience; purchased BPS Bioscience
Method: as §1, §2, §3

Brdt(BD1) = biological target: T3, Brdt(BD1) (Homo sapiens, UniProt Q58F21); experiment: HTRF BET selectivity profile, Brdt(BD1)
T3 construct: GST tagged bromodomain proteins were purchased from BPS Bioscience; purchased BPS Bioscience
Method: (§4) HTRF assays were performed in white 384 Well Small Volume™ HiBase Polystyrene Microplates (Greiner) with a total working volume of 20 μL. Compounds were dispensed, with 100 nL per well (0.5% final DMSO), from a concentration stock of 10 mM in 100% DMSO and with serial DMSO dilutions, using an Echo® 550 robot from the Access Labcyte platform (Labcyte) and based on the transfer of liquid by acoustic wave. Then, 19.5 μL of buffer is added, using a Multidrop Combi (Thermo Fisher Scientific). Finally, for each assay, 200 nL of master mix (protein+donor+acceptor) and 200 nL of peptide Is added in the assay wells according to the final concentration and buffer described in Table 3, using the Echo® 550 robot (Labcyte). The IC50 measurements were performed in triplicates (Table 2 and 3). All HTRF reagents (donor and acceptor) were purchased from CisBio Bioassays and reconstituted according to the supplier protocols. The peptide was purchased from Genic Bio Synthetic. The BRD4(1) protein was produced and purified in the laboratory. HTRF signals were measured, after a final incubation (3 h or 6 h or overnight at room temperature or 4° C., according to the bromodomain), using a PHERAstar FS (BMG Labtech) with an excitation filter at 337 nm and fluorescence wavelength measurement at 620 and 665 nm, an integration delay of 60 μs and an integration time of 500 μs. Results were analyzed with a two-wavelengths signal ratio: [intensity (665 nm)/intensity (620 nm)]*104.
as §2, §3

Brd3(BD1) = Brd3(BD1) (Homo sapiens, UniProt Q15059); experiment: HTRF BET selectivity profile, Brd3(BD1); design: GST tagged bromodomain proteins were purchased from BPS Bioscience; purchased BPS Bioscience; conditions: for Ratio 3-1 vs 3-2: selectivity Brd3(BD1) vs Brd3(BD2), HTRF IC50
Method: as §1, §2, §3

Brd4(BD2) = biological target: T4, Brd4(BD2) (Homo sapiens, UniProt O60885); experiment: HTRF BET selectivity profile, Brd4(BD2)
T4 construct: GST tagged bromodomain proteins were purchased from BPS Bioscience; purchased BPS Bioscience
Method: as §4, §2, §3

Brd3(BD2) = biological target: T5, Brd3(BD2) (Homo sapiens, UniProt Q15059); experiment: HTRF BET selectivity profile, Brd3(BD2)
T5 construct: GST tagged bromodomain proteins were purchased from BPS Bioscience; purchased BPS Bioscience
Method: as §4, §2, §3

Brd2(BD2) = biological target: T6, Brd2(BD2) (Homo sapiens, UniProt P25440); experiment: HTRF BET selectivity profile, Brd2(BD2)
T6 construct: GST tagged bromodomain proteins were purchased from BPS Bioscience; purchased BPS Bioscience
Method: as §1, §2, §3

[3] = triplicates, NA = IC50 > maximal concentration of compound used
[4] = mean of three experiments, NA = IC50 > 50 μM, read-out: Brd4(8D1) IC50

T5 sequence (Q15059 306-415 limits assumed): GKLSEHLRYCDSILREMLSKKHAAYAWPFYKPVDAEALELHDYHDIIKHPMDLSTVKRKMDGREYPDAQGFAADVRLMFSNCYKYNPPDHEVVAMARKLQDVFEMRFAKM
Chain of Brd3(BD1) (Q15059 34-140 limits assumed): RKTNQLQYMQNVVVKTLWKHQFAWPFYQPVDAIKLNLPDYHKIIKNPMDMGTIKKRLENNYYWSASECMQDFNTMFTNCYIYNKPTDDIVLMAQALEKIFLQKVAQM
T2 sequence (P25440 74-180 limits assumed): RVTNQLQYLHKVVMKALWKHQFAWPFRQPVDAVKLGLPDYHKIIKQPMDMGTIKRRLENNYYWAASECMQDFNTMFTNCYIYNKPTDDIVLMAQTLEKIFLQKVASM
T6 sequence (P25440 344-453 limits assumed): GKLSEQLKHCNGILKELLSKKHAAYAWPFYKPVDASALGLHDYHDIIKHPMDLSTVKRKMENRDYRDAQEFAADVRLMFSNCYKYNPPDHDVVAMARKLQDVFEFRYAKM

Row | Structure (SMILES) | Kd (BRD4(BD1) [1]) | IC50 (BRD4(BD1) [2]; [3]) | IC50 (Brd2(BD1); read-out: Brd2(BD1) IC50) | Ratio 2-1 vs 2-2 (Brd2(BD1)) | IC50 (Brdt(BD1)) | IC50 (BRD4(BD1) [2]; [4]) | Ratio 4-1 vs 4-2 (BRD4(BD1) [2]) | IC50 (Brd3(BD1)) | Ratio 3-1 vs 3-2 (Brd3(BD1)) | IC50 (Brd4(BD2)) | IC50 (Brd3(BD2)) | IC50 (Brd2(BD2); read-out: Brd2(BD2) IC50) | IC50 (Brd2(BD1)) | IC50 (Brd2(BD2))
1 | O=C1CCCc2cc(S(=O)(=O)NCC3CCC(C(=O)NCCc4cccs4)CC3)ccc2N1 (single isomer, unassigned) [Compound 5c] | 2.8 µM | 7 µM |  |  |  |  |  |  |  |  |  |  |  | 
2 | CCn1cnc2c1c(=O)[nH]c(=O)n2Cc1ccc(CNC(=O)c2ccc(Cn3cccc3)cc2)cc1 [Compound 33a] | 20.5 µM | 0.371 µM |  |  |  |  |  |  |  |  |  |  |  | 
3 | Cc1noc(C)c1CCNC(=O)c1ccc(CNS(=O)(=O)c2ccc3c(c2)CCCC(=O)N3)cc1 [Compound 16a] | 5.8 µM | 11 µM | 8.7 µM | >6 | 12.5 µM | 10.9 µM | >5 | 8.62 µM | >6 |  |  |  |  | 
4 | O=C1CCCc2cc(S(=O)(=O)C3CCC(C(=O)NCCc4ccccn4)CC3)ccc2N1 (stereo not drawn) [Compound 7a] | 3.5 µM | 9.6 µM | 16.1 µM | 0.4 | 9.16 µM | 9.55 µM | 2 | 22.2 µM | 2 | 20.8 µM | 47.2 µM | 7.11 µM |  | 
5 | CCn1cnc2c1c(=O)[nH]c(=O)n2Cc1ccc(CNS(=O)(=O)c2ccc3c(c2)CCC(=O)N3)cc1 [Compound 27b] |  | 0.766 µM | 3.49 µM | 2 | 2.15 µM | 0.766 µM | 11 | 0.94 µM | 3 | 8.31 µM | 3.03 µM | 5.58 µM |  | 
6 | Cc1noc(C)c1CCNC(=O)C1CCC(CNS(=O)(=O)c2ccc3c(c2)CCCC(=O)N3)CC1 (stereo not drawn) [Compound 9a] | 3.4 µM | 16 µM | 10.3 µM | 3 | 9.17 µM | 15.7 µM | >3 | 5.05 µM | >10 |  |  | 33.9 µM |  | 
7 | CCn1cnc2c1c(=O)[nH]c(=O)n2Cc1ccc(CNS(=O)(=O)c2ccc(OC3CCOCC3)cc2)cc1 [Compound 43b] | 0.11 µM | 0.096 µM | 0.26 µM | 9 | 1.1 µM | 0.096 µM | 34 | 0.13 µM | 22 | 3.3 µM | 2.9 µM | 2.4 µM |  | 
8 | CCn1cnc2c1c(=O)[nH]c(=O)n2Cc1ccc(CNS(=O)(=O)c2ccc(N3CCOCC3)cc2)cc1 [Compound 45a] | 0.06 µM | 0.087 µM | 0.321 µM | 3 | 0.432 µM | 0.087 µM | 31 | 0.161 µM | 10 | 2.67 µM | 1.64 µM | 1.07 µM |  | 
9 | CCn1cnc2c1c(=O)[nH]c(=O)n2Cc1ccc(CNS(=O)(=O)c2ccc3c(c2)CCCC(=O)N3)c2ccccc12 [Compound 31c] |  | 3.5 µM | 4.35 µM | 0.7 | 3.36 µM | 3.46 µM | 1 | 5.71 µM | 0.4 | 4.21 µM | 2.13 µM | 3.08 µM |  | 
10 | Cc1noc(C)c1CNC(=O)c1ccc(CNS(=O)(=O)c2ccc3c(c2)CCCC(=O)N3)cc1 [Compound 15c] | 2.2 µM | 7.8 µM |  |  |  |  |  |  |  |  |  |  |  | 
11 | CCn1c(CSc2nc3nc(C)cc(C)n3n2)nc2c1c(=O)[nH]c(=O)n2Cc1ccc(CNS(=O)(=O)c2ccc3c(c2)CCCC(=O)N3)cc1 [Compound 32b] |  | 0.964 µM and 2.7 µM |  | 0.9 | 9.54 µM | 0.984 µM | 29 | 9.6 µM | 0.8 | 28 µM | 7.27 µM |  | 4.37 µM | 3.94 µM
12 | CCn1cnc2c1c(=O)[nH]c(=O)n2Cc1ccc(CNS(=O)(=O)c2ccc(OC3CCCCC3)cc2)cc1 [Compound 43a] |  | 0.202 µM | 0.367 µM | >6 | 0.474 µM | 0.202 µM | 22 | 0.258 µM | 10 | 4.39 µM | 2.44 µM | 2.26 µM |  | 
